Results as given in US20060241038A1, “Therapeutic agent for Abeta related disorders” (Eisai Co., Ltd., priority 2005, published 2006).
“Also recorded” adds a separate entry of the source.

Legend:
[1] = Circular dichroism (CD) analysis of each Aβ (secondary structure); assay type: physicochemical; settings: each Aβ alone, 37° C., until 5 days
Experimental: The solution was then dispensed in 10 to 30 μL aliquots into 500 μL polypropylene microtubes and stored at −80° C. until use.
The Aβ solutions in HFIP were evaporated using a centrifugal evaporator (Tomy Seiko Co., Ltd., CC-180 and ST-10) to remove HFIP and then dissolved in a solution of 10 mM HEPES containing 0.9% NaCl. Each of the resulting Aβ solution was incubated at 37° C. and measured for their CD at different time points.
The Aβ-containing solutions were injected into washed quartz cells with an optical path length of 1 or 2 mm and measured for their CD. Until measurement, the quartz cells were allowed to stand at 37° C., 100% humidity.

Aβ1-42 [2] = target: T1, Aβ1-42 (Homo sapiens, UniProt P05067); assay: CD measurement on a 1:3 mixture of Aβ1-42 and each Aβ (β-sheet structure formation in Aβ1-42); assay type: biochemical; settings: 5 μM Aβ1-42 mixed with 15 μM of the Aβ (1:3)
T1 construct: purchased Peptide Institute, Inc. 4349-v
Experimental: The solution was then dispensed in 10 to 30 μL aliquots into 500 μL polypropylene microtubes and stored at −80° C. until use. The Aβ solutions in HFIP were evaporated using a centrifugal evaporator (Tomy Seiko Co., Ltd., CC-180 and ST-10) to remove HFIP and then dissolved in a solution of 10 mM HEPES containing 0.9% NaCl. Each of the resulting Aβ solution was incubated at 37° C. and measured for their CD at different time points. […] The Aβ-containing solutions were injected into washed quartz cells with an optical path length of 1 or 2 mm and measured for their CD. Until measurement, the quartz cells were allowed to stand at 37° C., 100% humidity.

[3] = Thioflavin T (ThT) analysis for aggregation ability of each Aβ; assay type: physicochemical; settings: each Aβ alone, in 10 mM HEPES containing 0.9% NaCl, 37° C.; 10 μM ThT
Experimental: (§1) After addition of ThT (SIGMA) at a final concentration of 10 μM, each sample was transferred to a 96-well black plate (Corning) and stirred for 10 seconds, followed by measuring the fluorescence intensity for each sample. Using a fluorospectrometer (LJL Biosystems), the fluorescence intensity at a wavelength of 490 nm was measured with an excitation light of 450 nm wavelength.

Aβ1-42 [4] = target: T1, Aβ1-42; assay: ThT fluorescence of 1:3 mixtures of Aβ1-42 and each Aβ; assay type: biochemical; settings: Aβ1-42 mixed with the Aβ at a ratio of 1:3
Experimental: as §1

Aβ40 = assay: ELISA quantification of Aβ40 in rat fetal brain-derived nerve cell culture medium; assay type: cell-based; settings: 3 days culture; effect stated as concentration-dependent (FIGS. 7-1 to 7-3)
Experimental: (§2) At 4 days after initiation of culturing, the test compounds synthesized in the preceding Examples, i.e., Compound A, Compound B (CAS#501907-79-5) or Compound C (CAS#670250-40-5) were added as follows. The medium was entirely removed and replaced by Neurobasal/B27/2ME free from 2-ME (i.e., Neurobasal/B27) in a volume of 11 ml/dish. The test compounds (Compounds A, B and C) in DMSO were diluted with Neurobasal/B27 to 100-fold of their final concentration and added in a volume of 110 μl/dish, followed by sufficient mixing. The final DMSO concentration was kept at 1% or below. The control group received DMSO alone.
(§3) After addition of the test compounds, the cells were cultured for 3 days and the whole volume of the medium was collected from each dish. The resulting medium was provided as a MALDI-TOF/MS sample.
(§4) A part of each medium collected in Example 7(3) aforementioned was used as an ELISA sample. Each sample was not diluted for Aβ42 measurement, while it was diluted 5-fold for Aβ40 measurement with a diluent attached to an ELISA kit before being subjected to ELISA.
(§5) Aβ ELISA was performed using a Human Amyloid beta (1-42) Assay Kit (#17711, IBL Co., Ltd.) and a Human Amyloid beta (1-40) Assay Kit (#17713, IBL Co., Ltd.) in accordance with the kit's recommended protocol (the procedures described in the attached document), provided that a calibration curve for each Aβ was prepared using beta-amyloid peptide 1-42 (rat) or beta-amyloid peptide 1-40 (rat) (Calbiochem. #171596[Aβ4 2] or #171593[Aβ4 0]). The results were expressed as percentages (% of Control) relative to the Aβ concentration in the medium from the control group (untreated group, Control).

Aβ42 = assay: ELISA quantification of Aβ42 in rat fetal brain-derived nerve cell culture medium; assay type: cell-based; settings: 3 days culture; effect stated as concentration-dependent (FIGS. 7-1 to 7-3)
Experimental: as §2, §3, §4, §5

[5] = tested on: Aβ fragments in rat fetal brain-derived nerve cell culture medium; assay: MALDI-TOF/MS analysis of Aβ in rat fetal brain-derived nerve cell culture medium; assay type: cell-based; settings: 3 days culture with various concentrations of test compound; normalized to internal standard Aβ12-28
Experimental: In the same manner as shown in Example 3 above, brain cortex-derived nerve cells were prepared from Wistar rats at 18 days of embryonic age. The nerve cell suspension was diluted with a medium and seeded onto 10 cm polystyrene culture dishes pre-coated with poly-D-lysine (BIOCOAT® cell environments Poly-D-lysine cell culture dish, Becton Dickinson Labware) in a volume of 15 ml/dish so as to give an initial cell density of 3.5×10^5 cells/cm^2. After the seeded cells were cultured for 1 day in an incubator with 5% CO2, 95% air at 37° C., the medium was entirely replaced by fresh Neurobasal/B27/2ME, followed by culturing for an additional 3 days.
as §2, §3
Each sampled culture supernatant was collected in a 15 mL centrifuge tube and supplemented with 400 μL of a 25-fold concentrated solution of protease inhibitor cocktail Complete (Roche Diagnostics GmbH), followed by centrifugation at 4° C. at 3,000 rotations/minute for 5 minutes to sediment cell fragments. The resulting supernatant was transferred to another 15 mL centrifuge tube and supplemented with synthetic Aβ12-28 (Bachem) as an internal standard at a final concentration of 2 nM, followed by addition of 5 μg anti-Aβ monoclonal antibody (clone name: 4G8, Signet Laboratories, Inc). Subsequently, 5 μL of Protein G plus Protein A Agarose (Oncogene Research Products) was added after being blocked at 4° C. with 2% BSA and washed with TBS buffer. Further, 3-[(3-cholamidopropyl)dimethylammonio]-1-propanesulfonate (CHAPS; SIGMA) was added to each tube at a final concentration of 1%, followed by mixing at 4° C. for 4 to 8 hours.
The Protein G plus Protein A Agarose holding the immunoprecipitated Aβ fragments adsorbed thereto was collected from each tube by centrifugation at 4° C. at 3,000 rotations/minute for 5 minutes and transferred to a 1.5 mL microtube. The Protein G plus Protein A Agarose was washed twice with 500 μL of 140 mM NaCl, 0.1% N-Octyl Glucoside (NOG; Loche Diagnostics GmbH), 10 mM Tris-HCl, pH 8, once with 500 μL of Tris-HCl, 10 mM, pH 8, and then once with 500 μL of ion exchanged water. After washing with ion exchanged water, as much fluid as possible was removed from each tube and Aβs were eluted with 5 μL of 0.2% NOG, 2.4% trifluoroacetic acid (TFA; PIERCE) and 48.7% acetonitrile (HPLC grade, Wako Pure Chemical Industries, Ltd.). Independently of this, α-cyano-4-hydroxy-cinnamic acid (CHCA; BRUKER DALTONICS) was dissolved in 0.2% NOG, 0.1% TFA and 33% acetonitrile at a saturating concentration and supplemented with human insulin (Peptide Institute, Inc.) and angiotensin III (Peptide Institute, Inc.) as mass standards at fmal concentrations of 167 nM and 56 nM, respectively, for use as a matrix solution. Each Aβ eluate (0.5 μL) and the matrix solution (0.5 μL) were spotted at the same position on a sample plate for mass spectrometry and air-dried at room temperature, followed by analysis with a mass spectrometer Voyager DE (Applied Biosystems). All mass data detected were corrected for the mass of human insulin and angiotensin III (5807.6 and 931.1, respectively). […]

Aβ42 production = settings: reported in 2001 (refs 13, 14); cited from earlier work

Compound	fluorescence intensity of ThT (content of β-sheet structure) with incubation time [3]	Aβ40 production (ELISA, % of Control) (Aβ40)	Aβ42 production (ELISA, % of Control) (Aβ42)	Aβ1-37 or Aβ11-37 production (MALDI-TOF/MS) [5]	Aβ1-38 or Aβ11-38 production (MALDI-TOF/MS) [5]	Aβ1-40 or Aβ11-40 production (MALDI-TOF/MS) [5]	Aβ1-42 or Aβ11-42 (peak intensity, MALDI-TOF/MS) [5]	other results
Aβ1-40: human-type Aβ1-40 (Peptide Institute, Inc., Prod. # 4307-v); amyloid β peptide	no increase in the fluorescence intensity	–	–	–	–	–	–	likelihood of forming a β-sheet structure (CD), compared with Aβ1-42 [1]: less likely to form a β-sheet structure than Aβ1-42; effect on β-sheet structure formation in Aβ1-42 (CD) (Aβ1-42 [2]): weaker than that of Aβ1-37 or Aβ1-38; time after mixing with Aβ1-42 at which a CD spectrum indicative of β-sheet structure was detected (Aβ1-42 [2]; 37° C., Aβ1-42+buffer showed β-sheet from 1 day): 2 days; increase in ThT fluorescence intensity (β-sheet structure formation) of Aβ1-42 compared to Aβ1-42 alone (Aβ1-42 [4]): the formation of β-sheet structure was inhibited; also recorded: the increase in the fluorescence intensity was inhibited
N#Cc1ccc(NC(=O)NC(=N)Nc2ccc(Cl)cc2)cc1 [Compound B, N-{[(4-chlorophenyl)amino]iminomethyl}-N′-(4-cyanophenyl)urea]	–	inhibited	inhibited	enhanced in a manner dependent on the concentration of Compound B	enhanced in a manner dependent on the concentration of Compound B	inhibited in a manner dependent on the concentration of Compound B	no detectable change	–
Aβ1-42: human-type Aβ1-42 (Peptide Institute, Inc., Prod. # 4349-v); amyloid β peptide	increased with increasing incubation time	–	–	–	–	–	–	–
CNC(=O)n1ccc2cc(Oc3ccnc(NC(=O)N[C@H](CO)C(=O)N4CCCCC4)c3)ccc21 [Compound C, 5-{2-{3-[(1R)-1-hydroxymethyl-2-oxo-2-piperidin-1-ylethyl]ureido}pyridin-4-yloxy}-1H-indole-1-carboxylic acid methylamide]	–	inhibited	inhibited	enhanced in a manner dependent on the concentration of Compound C	–	tended to be inhibited	no detectable change	Aβ1-39 or Aβ11-39 production (MALDI-TOF/MS) [5]: enhanced in a manner dependent on the concentration of Compound C
CC(C)Cc1ccc(C(C)C(=O)O)cc1 (stereo not shown) [ibuprofen]	–	–	–	–	–	–	–	effect on Aβ42 production (Aβ42 production): selectively inhibit Aβ42 production
COc1cc(/C=C/C(=O)NCc2cccc(-c3ccccc3)c2)ccc1-n1cnc(C)c1 [Compound A, (E)-N-biphenyl-3-ylmethyl-3-[3-methoxy-4-(4-methylimidazol-1-yl)phenyl]acrylamide]	–	inhibited	inhibited	enhanced in a manner dependent on the concentration of Compound A	enhanced in a manner dependent on the concentration of Compound A	inhibited in a manner dependent on the concentration of Compound A	no detectable change	–
